The test system of one experiment is Puccinia triticina. The experiment can be described thus: Wheat Brown Rust fungicidal activity (PUCCRT). Type of experiment: in vivo. The settings on record: Low Volume Cereal Activity at 121.5 g/Ha.
For the next experiment, the system named is Alternaria solani. The experiment can be described thus: Tomato Early Blight fungicidal activity (ALTESO). Type of experiment: in vivo. The conditions noted are these: 24 h, high volume, 1 Day Protectant, read-out: ALTESO % Control rating. The procedure: All fungicides were evaluated using the aforementioned method for their activity vs. all target diseases, unless stated otherwise. Wheat leaf blotch and brown rust activity were also evaluated using track spray applications, in which case the fungicides were formulated as EC formulations, containing 0.1% Trycol 5941 in the spray solutions. Wheat plants (variety Yuma) were grown from seed in a greenhouse in 50% mineral soil/50% soil-less Metro mix until the first leaf was fully emerged, with 7-10 seedlings per pot. These plants were inoculated with an aqueous spore suspension of Zymoseptoria tritici either prior to or after fungicide treatments. After inoculation the plants were kept in 100% relative humidity (one day in a dark dew chamber followed by two to three days in a lighted dew chamber at 20° C.) to permit spores to germinate and infect the leaf. The plants were then transferred to a greenhouse set at 20° C. for disease to develop. When disease symptoms were fully expressed on the 1st leaves of untreated plants, infection levels were assessed on a scale of 0 to 100 percent disease severity. Percent disease control was calculated using the ratio of disease severity on treated plants relative to untreated plants. Tomato plants (variety Outdoor Girl) were propagated in soil-less Metro mix, with each pot having one plant, and used when 12 to 14 days old. Test plants were inoculated with an aqueous spore suspension of Alternaria solani 24 hr after fungicide treatments. After inoculation the plants were kept in a dew room at 22° C. with 100% relative humidity for 48 hr to permit spores to germinate and infect the leaf. The plants were then transferred to a growth room at 22° C. for disease to develop. Fungicide formulation, application and disease assessment on the sprayed leaves followed the procedures as described in the Example A.

For experiment [1], the system named is Colletotrichum lagenarium. Briefly: Cucumber Anthracnose fungicidal activity (COLLLA). The settings on record: Colletotrichum orbiculare, 24 h, high volume, 1 Day Protectant, read-out: COLLLA % Control rating. Type of experiment: in vivo. The method, then: All fungicides were evaluated using the aforementioned method for their activity vs. all target diseases, unless stated otherwise. Wheat leaf blotch and brown rust activity were also evaluated using track spray applications, in which case the fungicides were formulated as EC formulations, containing 0.1% Trycol 5941 in the spray solutions. Wheat plants (variety Yuma) were grown from seed in a greenhouse in 50% mineral soil/50% soil-less Metro mix until the first leaf was fully emerged, with 7-10 seedlings per pot. These plants were inoculated with an aqueous spore suspension of Zymoseptoria tritici either prior to or after fungicide treatments. After inoculation the plants were kept in 100% relative humidity (one day in a dark dew chamber followed by two to three days in a lighted dew chamber at 20° C.) to permit spores to germinate and infect the leaf. The plants were then transferred to a greenhouse set at 20° C. for disease to develop. When disease symptoms were fully expressed on the 1st leaves of untreated plants, infection levels were assessed on a scale of 0 to 100 percent disease severity. Percent disease control was calculated using the ratio of disease severity on treated plants relative to untreated plants. Cucumber seedlings (variety Bush Pickle) were propagated in soil-less Metro mix, with each pot having one plant, and used in the test when 12 to 14 days old. Test plants were inoculated with an aqueous spore suspension of Colletotrichum lagenarium 24 hr after fungicide treatments. After inoculation the plants were kept in a dew room at 22° C. with 100% relative humidity for 48 hr to permit spores to germinate and infect the leaf. The plants were then transferred to a growth room set at 22° C. for disease to develop. Fungicide formulation, application and disease assessment on the sprayed leaves followed the procedures as described in the Example A.

Another experiment relates to Pyricularia oryzae. The experiment can be described thus: whole plant or invertebrate. Type of experiment: in vivo. The settings on record: 24 h, read-out: PYRIOR % Control rating.
The next experiment relates to Phakopsora pachyrhizi. The experiment can be described thus: Asian Soybean Rust fungicidal activity (PHAKPA). The settings on record: Phakopsora pachyrhizi, in Glycine max.
The mark [2] stands for this setting: 24 h, 1 Day Protectant, read-out: PUCCRT 1DP (Wheat Brown Rust, 1 Day Protectant).
The mark [3] stands for this setting: 72 h, 3 Day Curative, read-out: PUCCRT 3DC (Wheat Brown Rust, 3 Day Curative).
[4] abbreviates: 24 h, read-out: PHAKPA 1DP % Control rating, soybean, high volume, 25 ppm, 1 Day Protectant.
The mark [5] stands for this setting: 72 h, read-out: PHAKPA 3DC % Control rating, soybean, high volume, 25 ppm, 3 Day Curative.

Read-outs that look alike come from different tables or passages of the source.

On to `COc1ccnc(C(=O)N[C@@H](C)C(=O)O[C@@H](C)[C@H](Oc2cc(F)cc(Cl)c2)c2ccccc2)c1OC(C)=O` [Example 207], for which the pest or weed control at 121.5 g/ha is more than 80% in the experiment with Puccinia triticina (setting [2]) and less than 80% in the experiment with Puccinia triticina (setting [3]). Also, the pest or weed control at 100 ppm in the experiment on Alternaria solani is less than 0%; in experiment [1] it was more than 80%; with Pyricularia oryzae, more than 80%. For the same compound, the pest or weed control at 25 ppm with Phakopsora pachyrhizi (setting [4]) and with Phakopsora pachyrhizi (setting [5]) was less than 80% each time.

With `COc1ccnc(C(=O)N[C@@H](C)C(=O)O[C@@H](C)[C@H](Oc2ccc(F)cc2)c2ccccc2)c1OC(C)=O` [Example 235], the pest or weed control at 121.5 g/ha in the experiment on Puccinia triticina (setting [2]) and in the experiment with Puccinia triticina (setting [3]) was more than 80% each time. Moreover, the pest or weed control at 100 ppm in the experiment with Alternaria solani was less than 80%; in experiment [1], more than 80%; in the experiment with Pyricularia oryzae, more than 80%. The pest or weed control at 25 ppm with Phakopsora pachyrhizi (setting [4]) and in the experiment on Phakopsora pachyrhizi (setting [5]) was less than 80% each time.

`COc1ccnc(C(=O)N[C@@H](C)C(=O)O[C@@H](C)[C@H](Oc2ccccc2Cl)c2ccccc2)c1OC(C)=O` [Example 205]: the pest or weed control at 121.5 g/ha with Puccinia triticina (setting [2]) and with Puccinia triticina (setting [3]) was more than 80% in each case. For the same compound, the pest or weed control at 100 ppm is less than 80% with Alternaria solani, more than 80% in experiment [1] and more than 80% with Pyricularia oryzae. Also, the pest or weed control at 25 ppm in the experiment on Phakopsora pachyrhizi (setting [4]) and in the experiment with Phakopsora pachyrhizi (setting [5]) was less than 80% in each case.

As to `COc1ccnc(C(=O)N[C@@H](C)C(=O)O[C@@H](C)[C@H](Oc2ccccc2)c2ccc(F)cc2Cl)c1OCOC(C)=O` [Example 260], the pest or weed control at 121.5 g/ha in the experiment with Puccinia triticina (setting [2]) and in the experiment on Puccinia triticina (setting [3]) was more than 80% in each case. Besides, the pest or weed control at 100 ppm is less than 0% in the experiment with Alternaria solani, more than 80% in experiment [1] and more than 80% in the experiment on Pyricularia oryzae. Further, the pest or weed control at 25 ppm was more than 80% in the experiment on Phakopsora pachyrhizi (setting [4]) and less than 80% with Phakopsora pachyrhizi (setting [5]).

`COc1ccccc1[C@@H](Oc1ccccc1)[C@H](C)OC(=O)[C@H](C)NC(=O)c1nccc(OC)c1OCOC(C)=O` [Example 255]: the pest or weed control at 121.5 g/ha with Puccinia triticina (setting [2]) and with Puccinia triticina (setting [3]) was more than 80% throughout. Besides, the pest or weed control at 100 ppm in the experiment on Alternaria solani is less than 0%; in experiment [1] it was more than 80%; with Pyricularia oryzae, more than 80%. Also, the pest or weed control at 25 ppm in the experiment with Phakopsora pachyrhizi (setting [4]) was more than 80%; in the experiment on Phakopsora pachyrhizi (setting [5]), less than 0%.

Consider `COc1ccnc(C(=O)N[C@@H](C)C(=O)O[C@@H](C)[C@H](Oc2ccccc2)c2ccc(C)cc2)c1OCOC(C)=O` [Example 252], for which the pest or weed control at 121.5 g/ha in the experiment with Puccinia triticina (setting [2]) and in the experiment with Puccinia triticina (setting [3]) was more than 80% each time. The pest or weed control at 100 ppm was less than 0% with Alternaria solani, more than 80% in experiment [1] and more than 80% in the experiment with Pyricularia oryzae.

Regarding `COc1ccnc(C(=O)N[C@@H](C)C(=O)O[C@@H](C)[C@H](Oc2ccccc2)c2ccc(F)cc2C)c1OCOC(C)=O` [Example 259], the pest or weed control at 121.5 g/ha with Puccinia triticina (setting [2]) and in the experiment with Puccinia triticina (setting [3]) was more than 80% throughout. In addition, the pest or weed control at 100 ppm was less than 0% with Alternaria solani, more than 80% in experiment [1] and more than 80% with Pyricularia oryzae. In addition, the pest or weed control at 25 ppm with Phakopsora pachyrhizi (setting [4]) was more than 80%; with Phakopsora pachyrhizi (setting [5]), less than 0%.

Take `COc1ccnc(C(=O)N[C@@H](C)C(=O)O[C@@H](C)C(Oc2ccc(F)cc2)c2ccccc2)c1OC(C)=O` (some centres unmarked) [Example 236]: the pest or weed control at 121.5 g/ha with Puccinia triticina (setting [2]) and in the experiment on Puccinia triticina (setting [3]) was more than 80% in each case. Moreover, the pest or weed control at 100 ppm in the experiment on Alternaria solani was less than 80%; in experiment [1], less than 80%; in the experiment on Pyricularia oryzae, more than 80%. In addition, the pest or weed control at 25 ppm in the experiment on Phakopsora pachyrhizi (setting [4]) is more than 80%; in the experiment on Phakopsora pachyrhizi (setting [5]), less than 0%.

With `COc1ccnc(C(=O)N[C@@H](C)C(=O)O[C@@H](C)[C@H](Oc2cccc(F)c2)c2ccccc2)c1OCOC(C)=O` [Example 187], the pest or weed control at 121.5 g/ha with Puccinia triticina (setting [2]) and in the experiment with Puccinia triticina (setting [3]) was more than 80% throughout. For the same compound, the figures for the pest or weed control at 100 ppm (with Alternaria solani; in experiment [1]; in the experiment on Pyricularia oryzae) were less than 80%, more than 80% and more than 80%, respectively. Further, the values for the pest or weed control at 25 ppm in the experiment with Phakopsora pachyrhizi (setting [4]) and with Phakopsora pachyrhizi (setting [5]) were more than 80% and less than 80%, respectively.

Consider `COc1ccnc(C(=O)N[C@@H](C)C(=O)O[C@@H](C)[C@H](Oc2ccccc2)c2ccc3ccccc3c2)c1OCOC(C)=O` [Example 263], for which the pest or weed control at 121.5 g/ha with Puccinia triticina (setting [2]) and in the experiment with Puccinia triticina (setting [3]) was more than 80% throughout. The pest or weed control at 100 ppm is less than 0% with Alternaria solani, more than 80% in experiment [1] and more than 80% in the experiment with Pyricularia oryzae.

In the case of `COc1ccnc(C(=O)N[C@@H](C)C(=O)O[C@@H](C)C(Oc2ccc(F)cc2)c2ccc(F)cc2)c1OCOC(C)=O` (some centres unmarked) [Example 238], the pest or weed control at 121.5 g/ha in the experiment on Puccinia triticina (setting [2]) and with Puccinia triticina (setting [3]) was more than 80% in each case. Further, the pest or weed control at 100 ppm in the experiment with Alternaria solani was more than 80%; in experiment [1], less than 80%; with Pyricularia oryzae, more than 80%. The pest or weed control at 25 ppm in the experiment with Phakopsora pachyrhizi (setting [4]) and in the experiment with Phakopsora pachyrhizi (setting [5]) was less than 80% in each case.

With `COc1ccnc(C(=O)N[C@@H](C)C(=O)O[C@@H](C)[C@H](Oc2cccc(Cl)c2)c2ccccc2)c1OCOC(C)=O` [Example 202], the results for the pest or weed control at 121.5 g/ha in the experiment on Puccinia triticina (setting [2]) and with Puccinia triticina (setting [3]) were more than 80% and less than 80%, respectively. For the same compound, the pest or weed control at 100 ppm is less than 0% in the experiment on Alternaria solani, less than 80% in experiment [1] and less than 80% in the experiment with Pyricularia oryzae. Besides, the pest or weed control at 25 ppm is more than 80% with Phakopsora pachyrhizi (setting [4]) and less than 80% with Phakopsora pachyrhizi (setting [5]).

In the case of `COc1ccnc(C(=O)N[C@@H](C)C(=O)O[C@@H](C)[C@H](Oc2ccc(F)cc2)c2ccccc2)c1OCOC(C)=O` [Example 237], the pest or weed control at 121.5 g/ha in the experiment with Puccinia triticina (setting [2]) and in the experiment with Puccinia triticina (setting [3]) was more than 80% throughout. The values for the pest or weed control at 100 ppm (in the experiment on Alternaria solani; in experiment [1]; with Pyricularia oryzae) were less than 80%, less than 80% and more than 80%, respectively. Besides, the pest or weed control at 25 ppm with Phakopsora pachyrhizi (setting [4]) and with Phakopsora pachyrhizi (setting [5]) was less than 80% in each case.

As to `COc1cc(F)ccc1[C@@H](Oc1ccccc1)[C@H](C)OC(=O)[C@H](C)NC(=O)c1nccc(OC)c1OCOC(C)=O` [Example 256], the pest or weed control at 121.5 g/ha with Puccinia triticina (setting [2]) and with Puccinia triticina (setting [3]) was more than 80% in each case. Moreover, the values for the pest or weed control at 100 ppm (in the experiment on Alternaria solani; in experiment [1]; in the experiment on Pyricularia oryzae) were less than 80%, more than 80% and more than 80%, respectively. The pest or weed control at 25 ppm in the experiment on Phakopsora pachyrhizi (setting [4]) was more than 80%; in the experiment with Phakopsora pachyrhizi (setting [5]), less than 0%.

As to `COc1ccnc(C(=O)N[C@@H](C)C(=O)O[C@@H](C)[C@H](Oc2ccccc2)c2ccccc2)c1OCOC(C)=O` [Example 183], the pest or weed control at 121.5 g/ha in the experiment on Puccinia triticina (setting [2]) and with Puccinia triticina (setting [3]) was more than 80% in each case. Moreover, the pest or weed control at 100 ppm in the experiment on Alternaria solani is less than 80%; in experiment [1], more than 80%; with Pyricularia oryzae, more than 80%. The pest or weed control at 25 ppm with Phakopsora pachyrhizi (setting [4]) and with Phakopsora pachyrhizi (setting [5]) was less than 80% each time.
